According to patent publication US12195427B2, “MASP-2 inhibitors and methods of use” (priority 2018, dated 2025):
One block for each compound: values may come before it.

Biological target: MASP-2 CCP2-SP (Homo sapiens (Human), UniProt O00187)
Test: MASP-2 co-crystallization, X-ray crystallography and structure analysis (H-bonds, van der Waals contacts);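 for Ligand-pharmacophore element distance, pharmacophore element C2: distance from averaged pharmacophore element to bound ligand; missing value means element absent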;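 for Ligand-pharmacophore element distance, pharmacophore element C3: distance from averaged pharmacophore element to bound ligand; missing value means element absent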;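 for Ligand-pharmacophore element distance, pharmacophore element C4: distance from averaged pharmacophore element to bound ligand; missing value means element absent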;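 for Ligand-pharmacophore element distance, pharmacophore element C5: distance from averaged pharmacophore element to bound ligand; missing value means element absent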
Design: van der Waals contact distance, MASP-2 HIS 483 atom CD2 / van der Waals contact distance, MASP-2 HIS 483 atom NE2 / van der Waals contact distance, SER 654 C to compound atom / van der Waals contact distance, SER 654 O to compound atom / van der Waals contact distance, TRP 655 C to compound atom / van der Waals contact distance, MASP-2 GLY 528 atom CA / van der Waals contact distance TRP 655 atom CZ3 / van der Waals contact distance TRP 655 atom N / van der Waals contact distance TRP 655 atom CE3 / van der Waals contact distance GLY 656 atom C / van der Waals contact distance GLY 656 atom CA / van der Waals contact distance GLY 656 atom O / van der Waals contact distance, MASP-2 TYR 607 atom CD1 / van der Waals contact distance, MASP-2 PRO 606 atom O / d(C3,CA1) / d(CA1,N1)2 / d(H4,O1) / d(H4,O2) / d(O1,O2) / d(CA1,O2) / d(CA6,O1) / d(CA6,O2) / d(CA1,C5) / d(O2,H3) / d(N2,C2) / d(CA5,N2) / d(N2,C4) / d(N2,C6) / d(N2,CA3) / d(N2,O3) / d(O4,H2): unit not given beside the values
Conditions: for H-bond distance to MASP-2 GLY 656 atom N: GLY 656 N; for H-bond distance to MASP-2 SER 628 atom O: SER 628 O; for H-bond distance to MASP-2 SER 654 atom O: SER 654 O; for H-bond distance to MASP-2 SER 657 atom O: SER 657 O; for van der Waals contact distance TRP 655 atom CE3: MASP-2 TRP 655 CE3, compound atom in line below; for van der Waals contact distance TRP 655 atom N: MASP-2 TRP 655 N; for Ligand-pharmacophore element distance, pharmacophore element C2 / Ligand-pharmacophore element distance, pharmacophore element C3 / Ligand-pharmacophore element distance, pharmacophore element C4 / Ligand-pharmacophore element distance, pharmacophore element C5 / Ligand-pharmacophore element distance, pharmacophore element C6 / Ligand-pharmacophore element distance, pharmacophore element C7 / Ligand-pharmacophore element distance, pharmacophore element CA1 / Ligand-pharmacophore element distance, pharmacophore element CA2 / Ligand-pharmacophore element distance, pharmacophore element CA3 / Ligand-pharmacophore element distance, pharmacophore element CA4 / Ligand-pharmacophore element distance, pharmacophore element CA5 / Ligand-pharmacophore element distance, pharmacophore element CA6: Table A4-1; for d(N2,C2) / d(N2,CA2) / d(O2,H3) / d(O2,N2): Table A5-2 pharmacophore distance, S3/S4 region; for Pharmacophore protein distance to MET_658 (first MET_658 column) / Pharmacophore protein distance to MET_658 (second MET_658 column) / Pharmacophore protein distance to GLY_528 / Pharmacophore protein distance to PHE_529 / Pharmacophore protein distance to PRO_608 / Pharmacophore protein distance to SER_611 / Pharmacophore protein distance to TRP_655: Table A8-6, nearest protein atom in cell to the left; for Pharmacophore protein distance to MET_658 (first MET_658 column): 6th residue column; for Pharmacophore protein distance to MET_658 (second MET_658 column): 9th residue column; for Pharmacophore protein distance to TRP_655: pharmacophore elements C6, CA3, O3, H1
Outline: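 Contacts and H-bonds come from partially refined soaked-crystal structures of recombinant human CCP2-SP made in E. coli, solved by molecular replacement against 1Q3X fragments. Where several ligand poses appeared, only one was analysed; listed nonbonded contacts may include possible H-bond pairings.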

[1] = Table A5-1 pharmacophore: distance between elements, S2/S1 region
[2] = Table A7-1, between pharmacophore elements of the bound compound
[3] = Table A7-2, between pharmacophore elements of the bound compound

MASP-2 CCP2-SP, sequence (O00187 445-686): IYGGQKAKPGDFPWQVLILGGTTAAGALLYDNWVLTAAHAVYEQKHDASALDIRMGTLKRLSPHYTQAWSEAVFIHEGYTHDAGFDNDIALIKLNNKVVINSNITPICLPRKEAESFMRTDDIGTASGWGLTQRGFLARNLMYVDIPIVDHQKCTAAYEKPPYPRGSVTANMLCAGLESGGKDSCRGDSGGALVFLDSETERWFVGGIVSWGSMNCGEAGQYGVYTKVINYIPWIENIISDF
MASP-2 CCP2-SP, sequence (O00187 364-432 partner): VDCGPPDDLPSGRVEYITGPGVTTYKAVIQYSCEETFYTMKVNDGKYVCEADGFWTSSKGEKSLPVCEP

Structure (SMILES): C[C@H](NC(=O)[C@@H](CCc1ccccc1)NCCCc1ccc(O)cc1)C(=O)NCc1ccc(C(=N)N)cc1 [compound 1145]
H-bond distance to MASP-2 GLY 656 atom N (Table A1 (H-Bonds)): 3.09
H-bond distance to MASP-2 GLY 656 atom O (Table A1 (H-Bonds), GLY 656 O): 2.58
H-bond distance to MASP-2 SER 628 atom O (Table A1 (H-Bonds)): 2.84
H-bond distance to MASP-2 SER 654 atom O (Table A1 (H-Bonds)): 2.84
H-bond distance to MASP-2 SER 657 atom O (Table A1 (H-Bonds)): 2.81
van der Waals contact distance, MASP-2 HIS 483 atom CD2 (Table A2-1): 3.75
van der Waals contact distance, MASP-2 PHE 529 atom CD1 (Table A2-3): 3.54
van der Waals contact distance, MASP-2 TYR 607 atom CD2 (Table A2-4): 3.89
van der Waals contact distance, VAL 653 CG1 to compound atom (Table A2-11): 3.9
van der Waals contact distance TRP 655 atom CE3 (Table A2-13): 3.49
van der Waals contact distance TRP 655 atom N (Table A2-13): 3.79
van der Waals contact distance, MASP-2 amino acid atom to compound atom (Table A2 section before Table A2-8): 3.85

Structure (SMILES): Cc1nc(N)ccc1CNC(=O)C(C)NC(=O)C1CC(c2cccc3ccccc23)CCN1.Cl.Cl (stereo not drawn) [1297_6]
Ligand-pharmacophore element distance, pharmacophore element C2: 0.33
Ligand-pharmacophore element distance, pharmacophore element C3: 0.4
Ligand-pharmacophore element distance, pharmacophore element C4: 0
Ligand-pharmacophore element distance, pharmacophore element C5: 0
Ligand-pharmacophore element distance, pharmacophore element C6: 0
Ligand-pharmacophore element distance, pharmacophore element C7: 0
Ligand-pharmacophore element distance, pharmacophore element CA1: 0.36
Ligand-pharmacophore element distance, pharmacophore element CA2: 0.24
Ligand-pharmacophore element distance, pharmacophore element CA3: 0
Ligand-pharmacophore element distance, pharmacophore element CA4: 1.14
Ligand-pharmacophore element distance, pharmacophore element CA5: 0
Ligand-pharmacophore element distance, pharmacophore element CA6: 0
d(C3,CA1) [1]: 2.86
d(CA1,N1)2 [1]: 1.38
d(CA1,O1) [1]: 4.73
d(CA1,O2) [1]: 4.23
d(H4,O1) [1]: 4.65
d(H4,O2) [1]: 4.26
d(O1,O2) [1]: 3.53
d(N2,C2): 1.44
d(N2,CA2): 5.72
d(O2,H3): 4.15
d(O2,N2): 2.83
a(C3, CA1, O1) (Table A6-1 pharmacophore angle): 150.35
a(CA1, O1, O2) (Table A6-1 pharmacophore angle): 105.49
a(O1, O2, H4) (Table A6-1 pharmacophore angle): 133.61
a(N1, CA1, O1) b) (Table A6-1 pharmacophore angle, Methyl-amino-pyridine compounds): 173.49
a(O1, O2, H3) (Table A6-2 pharmacophore angle): 144.79
a(O1, O2, N2) (Table A6-2 pharmacophore angle): 141.32
a(O2, N2, C2) (Table A6-2 pharmacophore angle): 116.76
a(O2, N2, CA2) (Table A6-2 pharmacophore angle): 154.05
Pharmacophore torsion angle a(C3, CA1, O1, H4) [2]: 27.46
Pharmacophore torsion angle a(H4, O1, O2, H3) [2]: 43.22
Pharmacophore torsion angle a(H4, O1, O2, N2) [2]: 150.19
Pharmacophore torsion angle a(N1, CA1, O1, H4) [2]: 5.20
Pharmacophore torsion angle a(O1, H4, O2, CA1) [2]: −89.84
Pharmacophore torsion angle a(O1, O2, N2, C2) [2]: 132.97
Pharmacophore torsion angle a(O1, O2, N2, CA2) [3]: 131.04
Pharmacophore torsion angle a(O1, O2, N2, CA4) [3]: 109.63

H-bond distance to MASP-2 GLN 665 atom OE1 (Table A1 (H-Bonds), GLN 665 OE1): 2.56
H-bond distance to MASP-2 GLY 656 atom N (Table A1 (H-Bonds)): 3.26
H-bond distance to MASP-2 SER 628 atom O (Table A1 (H-Bonds)): 3.01
H-bond distance to MASP-2 SER 633 atom OG (Table A1 (H-Bonds), SER 633 OG): 3.08
H-bond distance to MASP-2 SER 654 atom O (Table A1 (H-Bonds)): 2.94
H-bond distance to MASP-2 SER 657 atom O (Table A1 (H-Bonds)): 2.84
van der Waals contact distance, MASP-2 HIS 483 atom CD2 (Table A2-1): 3.7
van der Waals contact distance, MASP-2 HIS 483 atom NE2 (Table A2-1): 3.87
van der Waals contact distance, MASP-2 PHE 529 atom CE2 (Table A2-3): 3.68
van der Waals contact distance, MASP-2 amino acid atom to compound atom (Table A2-7 continued: CYS 629 (CA)): 3.87
van der Waals contact distance, SER 654 C to compound atom (Table A2-11): 3.79
van der Waals contact distance GLY 656 atom C (Table A2-13, MASP-2 GLY 656 C): 3.64
van der Waals contact distance TRP 655 atom CE3 (Table A2-13): 3.76
van der Waals contact distance TRP 655 atom N (Table A2-13): 3.89
van der Waals contact distance GLY 656 atom O (Table A2-14, MASP-2 GLY 656 O): 3.3
van der Waals contact distance SER 657 atom C (Table A2-14, MASP-2 SER 657 C, columns c12-c13 (inferred)): 3.7
Ligand-pharmacophore element distance, pharmacophore element C2: 0
Ligand-pharmacophore element distance, pharmacophore element C3: 9.61
Ligand-pharmacophore element distance, pharmacophore element C4: 0
Ligand-pharmacophore element distance, pharmacophore element C5: 0
Ligand-pharmacophore element distance, pharmacophore element C6: 0
Ligand-pharmacophore element distance, pharmacophore element C7: 0
Ligand-pharmacophore element distance, pharmacophore element CA1: 0.54
Ligand-pharmacophore element distance, pharmacophore element CA2: 0
Ligand-pharmacophore element distance, pharmacophore element CA3: 0
Ligand-pharmacophore element distance, pharmacophore element CA4: 0
Ligand-pharmacophore element distance, pharmacophore element CA5: 1.25
Ligand-pharmacophore element distance, pharmacophore element CA6: 1.35
d(CA1,N1) [1]: 3.56
d(CA1,O1) [1]: 7.59
d(CA1,O2) [1]: 6.76
d(CA6,O1) [1]: 2.73
d(CA6,O2) [1]: 2.50
d(H4,O1) [1]: 3.89
d(H4,O2) [1]: 5.39
d(O1,O2) [1]: 4.92
d(O2,H3): 9.00
a(CA1, O1, O2) (Table A6-1 pharmacophore angle): 100.76
a(O1, CA6, O2) (Table A6-1 pharmacophore angle): 159.18
a(O1, O2, H4) (Table A6-1 pharmacophore angle): 118.45
A(N1, CA1, O1) a) (Table A6-1 pharmacophore angle, all compounds with protonatable center N1 except Methyl-amino-pyridine): 169.37
a(O1, O2, H3) (Table A6-2 pharmacophore angle): 154.86
Pharmacophore torsion angle a(CA6, O1, H4, O2) [2]: −9.94
Pharmacophore torsion angle a(H4, O1, O2, H3) [2]: 30.27
Pharmacophore torsion angle a(N1, CA1, O2, H4) [2]: −154.72
Pharmacophore torsion angle a(O1, H4, O2, CA1) [2]: −146.71
Pharmacophore protein distance to MET_658 (first MET_658 column): 1.58
Pharmacophore protein distance to MET_658 (second MET_658 column): 2.86
Pharmacophore protein distance to GLY_528: 3.65
Pharmacophore protein distance to PHE_529: 2.90
Pharmacophore protein distance to PRO_608: 3.74
Pharmacophore protein distance to SER_611: 2.86
Pharmacophore protein distance to TRP_655: 3.77
Structure (SMILES): CNC(=O)c1ccc2c(=O)n(Cc3ccccc3)c(=O)n(CC(=O)NCc3ccc(C(=N)N)cc3)c2c1 [compound 2018, 3-Benzyl-1-(2-((4-carbamimidoylbenzyl)amino)-2-oxoethyl)-N-methyl-2,4-dioxo-1,2,3,4-tetrahydroquinazoline-7-carboxamide]

Structure (SMILES): C[C@H](NC(=O)[C@H](N)CCCc1ccccc1)C(=O)NCc1ccc(C(=N)N)cc1.Cl.Cl [1042_3]
Ligand-pharmacophore element distance, pharmacophore element C2: 2.05
Ligand-pharmacophore element distance, pharmacophore element C3: 0
Ligand-pharmacophore element distance, pharmacophore element C4: 0
Ligand-pharmacophore element distance, pharmacophore element C5: 0
Ligand-pharmacophore element distance, pharmacophore element C6: 0
Ligand-pharmacophore element distance, pharmacophore element C7: 0
Ligand-pharmacophore element distance, pharmacophore element CA1: 0.5
Ligand-pharmacophore element distance, pharmacophore element CA2: 1.65
Ligand-pharmacophore element distance, pharmacophore element CA3: 0
Ligand-pharmacophore element distance, pharmacophore element CA4: 0
Ligand-pharmacophore element distance, pharmacophore element CA5: 0
Ligand-pharmacophore element distance, pharmacophore element CA6: 0
d(CA1,N1) [1]: 3.63
d(CA1,O2) [1]: 4.54
d(H4,O2) [1]: 4.90
d(N2,C2): 3.55
d(N2,CA2): 6.60
d(O2,H3): 6.75
d(O2,N2): 4.11
a(O2, N2, C2) (Table A6-2 pharmacophore angle): 129.44
a(O2, N2, CA2) (Table A6-2 pharmacophore angle): 145.75
Pharmacophore protein distance to MET_658 (first MET_658 column): 2.74
Pharmacophore protein distance to MET_658 (second MET_658 column): 4.20
Pharmacophore protein distance to GLY_528: 2.99
Pharmacophore protein distance to PHE_529: 2.42
Pharmacophore protein distance to PRO_608: 4.06
Pharmacophore protein distance to SER_611: 2.32
Pharmacophore protein distance to TRP_655: 3.21
